# Data reported in publication PMC7168327, “Designed Antimicrobial Peptides for Topical Treatment of Antibiotic Resistant Acne Vulgaris” (Antibiotics, 2020).
# Bridge positions count the residues as written; N and C are the ends. Peptide text beside a SMILES is read from it.
# What was measured:
# [1] = test system: bioluminescent human immortalized keratinocytes (HaCaT); assay: Mammalian cytotoxicity, bioluminescent human keratinocytes; assay type: cell-based; conditions: bioluminescent HaCaT
# Description: Noninvasive and real-time monitoring of mammalian cytotoxicity to assess the potential skin toxicity of the dAMPs was evaluated using bioluminescent human immortalized keratinocytes (HaCaT, AddexBio, San Diego, CA, USA). The bioluminescent variant of HaCaT was constructed by transfection with a luciferase gene (RediFect Red-Fluc-Puromycin, Cat# CL596002). Keratinocytes (1 × 10^4 cells, 100 μL) were plated in 96-well black-walled plates. The candidate dAMPs were 2-fold serially diluted from 1024 µg/mL in growth medium supplemented with 150 µg/mL D-luciferin. Each concentration was performed in triplicate, with the final volume being 200 μL. Imaging was performed at select times (0, 15, and 30 min and 1, 3, 5, and 8 h) after the addition of the dAMP, and compared to concurrently run vehicle-control, using an IVIS Lumina imaging system (Caliper Life Sciences, Inc., Hopkinton, MA, USA). For imaging, the 96-well plate was positioned on the stage (12.5-cm field of view), with an open emission filter, binning of 4, and f-stop 1 and a 1-min exposure time. Data analysis was performed using the Living Image software program (version 4.3, Caliper Life Sciences, Inc.). The dAMP concentrations required to kill 10% and 50% of keratinocytes were determined using GraphPad Prism 7 (GraphPad Software, San Diego, CA, USA).
# C. acnes HL056PA1 = assay type: cell-based, Cutibacterium acnes; conditions: C. acnes HL056PA1; RCM broth, anaerobic, 1 × 10^6 CFU per mL, two-fold dilutions 0.5–32 μg/mL, 48 h, OD 600 nm; mean of three replicates
# Description: (§1) The ten antibiotic resistant C. acnes clinical isolates were acquired from BEI resources with the two reference strains obtained from American Type Culture Collection (ATCC, Manassas, VA, USA). C. acnes is a relatively slow-growing, typically aerotolerant anaerobic so all in vitro C. acnes experiments were performed under anaerobic conditions.
# (§2) Single colonies were inoculated in Reinforced Clostridium Medium (RCM) broth supplemented with sodium thioglycolate and incubated at 37 °C, with shaking at 200 rpm, for 2 or 3 days to reach logarithmic growth (OD600nm = 1.0). Each C. acnes (1 × 10^6 CFU per mL) was incubated with dAMP or clindamycin at two-fold serial dilutions (0.5–32 μg per mL) in RCM on a 96-well microplate for 48 h. Three replicas were included for each test article concentration. Bacterial growth was measured by optical density at 600 nm to determine the MIC for each dAMP applied.
# C. acnes ATCC11827 = assay type: cell-based, Cutibacterium acnes; conditions: C. acnes ATCC11827; RCM broth, anaerobic, 1 × 10^6 CFU per mL, two-fold dilutions 0.5–32 μg/mL, 48 h, OD 600 nm; mean of three replicates
# Description: as §1, §2
# C. acnes HL043PA2 = assay type: cell-based, Cutibacterium acnes; conditions: C. acnes HL043PA2 (multi-drug resistant); RCM broth, anaerobic, 1 × 10^6 CFU per mL, two-fold dilutions 0.5–32 μg/mL, 48 h, OD 600 nm; mean of three replicates
# Description: as §1, §2
# C. acnes HL013PA1 = assay type: cell-based, Cutibacterium acnes; conditions: C. acnes HL013PA1; RCM broth, anaerobic, 1 × 10^6 CFU per mL, two-fold dilutions 0.5–32 μg/mL, 48 h, OD 600 nm; mean of three replicates
# Description: as §1, §2
# C. acnes HL007PA1 = assay type: cell-based, Cutibacterium acnes; conditions: C. acnes HL007PA1; RCM broth, anaerobic, 1 × 10^6 CFU per mL, two-fold dilutions 0.5–32 μg/mL, 48 h, OD 600 nm; mean of three replicates
# Description: as §1, §2
# C. acnes HL072PA1 = assay type: cell-based, Cutibacterium acnes; conditions: C. acnes HL072PA1; RCM broth, anaerobic, 1 × 10^6 CFU per mL, two-fold dilutions 0.5–32 μg/mL, 48 h, OD 600 nm; mean of three replicates
# Description: as §1, §2
# C. acnes HL045PA1 = assay type: cell-based, Cutibacterium acnes; conditions: C. acnes HL045PA1; RCM broth, anaerobic, 1 × 10^6 CFU per mL, two-fold dilutions 0.5–32 μg/mL, 48 h, OD 600 nm; mean of three replicates
# Description: as §1, §2
# C. acnes HL043PA1 = assay type: cell-based, Cutibacterium acnes; conditions: C. acnes HL043PA1; RCM broth, anaerobic, 1 × 10^6 CFU per mL, two-fold dilutions 0.5–32 μg/mL, 48 h, OD 600 nm; mean of three replicates
# Description: as §1, §2
# [2] = test system: ten C. acnes clinical isolates and two C. acnes ATCC reference strains; assay type: cell-based, Cutibacterium acnes
# Description: as §1, §2
# C. acnes HL053PA1 = assay type: cell-based, Cutibacterium acnes; conditions: C. acnes HL053PA1; RCM broth, anaerobic, 1 × 10^6 CFU per mL, two-fold dilutions 0.5–32 μg/mL, 48 h, OD 600 nm; mean of three replicates
# Description: as §1, §2
# C. acnes ATCC6919 = assay type: cell-based, Cutibacterium acnes; conditions: C. acnes ATCC6919; RCM broth, anaerobic, 1 × 10^6 CFU per mL, two-fold dilutions 0.5–32 μg/mL, 48 h, OD 600 nm; mean of three replicates
# Description: as §1, §2
# C. acnes HL038PA1 = assay type: cell-based, Cutibacterium acnes; conditions: C. acnes HL038PA1; RCM broth, anaerobic, 1 × 10^6 CFU per mL, two-fold dilutions 0.5–32 μg/mL, 48 h, OD 600 nm; mean of three replicates
# Description: as §1, §2
# C. acnes HL082PA2 = assay type: cell-based, Cutibacterium acnes; conditions: C. acnes HL082PA2; RCM broth, anaerobic, 1 × 10^6 CFU per mL, two-fold dilutions 0.5–32 μg/mL, 48 h, OD 600 nm; mean of three replicates
# Description: as §1, §2
smiles,measurement,setting,value
"CC[C@H](C)[C@@H]1NC(=O)CNC(=O)[C@H](CCCCN)NC(=O)[C@H](Cc2ccc(O)cc2)NC(=O)[C@@H]2CSSC[C@H](NC1=O)C(=O)N[C@@H](Cc1ccc(O)cc1)C(=O)N[C@@H](CCCCN)C(=O)N[C@@H](CCCCN)C(=O)N[C@H](C(=O)N[C@@H](CCCCN)C(N)=O)CSSC[C@H](NC(=O)[C@H](Cc1c[nH]c3ccccc13)NC(=O)[C@@H](N)CCCNC(=N)N)C(=O)N[C@@H](Cc1ccccc1)C(=O)N[C@@H](CCCCN)C(=O)N[C@@H](C(C)C)C(=O)N2 [RP556] (H-RWCFKVCYKGICYKKCK-NH2; disulfide 3-16, 7-12)",viability of human keratinocytes,[1]; 8 h incubation at 256 μg/mL,greater than 80%
same,"EC10, concentration required to kill 10% of human keratinocytes","[1]; 1 × 10^4 cells/well, 8 h incubation, 2-fold dilutions from 1024 µg/mL, triplicate, IVIS imaging, GraphPad Prism 7",276 µg/mL
same,MIC,C. acnes HL056PA1,2 µg/mL
same,MIC,C. acnes ATCC11827,8 µg/mL
same,MIC,C. acnes HL043PA2,4 µg/mL
same,MIC,C. acnes HL013PA1,2 µg/mL
same,MIC,C. acnes HL007PA1,4 µg/mL
same,MIC,C. acnes HL072PA1,8 µg/mL
same,MIC,C. acnes HL045PA1,4 µg/mL
same,MIC,C. acnes HL043PA1,4 µg/mL
same,in vitro anti-bacterial activity against the C. acnes bacterial strains (in words),[2]; 0.5–32 μg/mL concentration range evaluated,most active
same,MIC values against all C. acnes isolates,[2]; span over ten antibiotic resistant isolates and two ATCC reference strains,2 to 8 µg/mL
same,MIC,C. acnes HL053PA1,4 µg/mL
same,MIC,C. acnes ATCC6919,4 µg/mL
same,MIC,C. acnes HL038PA1,4 µg/mL
same,MIC,C. acnes HL082PA2,2 µg/mL
